# Literature values, collected in patent publication US20250120985A1, “METHOD OF TREATING DIABETIC MACULAR EDEMA” (Oculis Operations Sàrl, priority 2023, published 2025).
# Details: 25° C.
row,Structure (SMILES),solubility in pure water [mg/mL]
1,OC[C@H]1O[C@@H]2O[C@H]3[C@H](O)[C@@H](O)[C@@H](O[C@H]4[C@H](O)[C@@H](O)[C@@H](O[C@H]5[C@H](O)[C@@H](O)[C@@H](O[C@H]6[C@H](O)[C@@H](O)[C@@H](O[C@H]7[C@H](O)[C@@H](O)[C@@H](O[C@H]1[C@H](O)[C@H]2O)O[C@@H]7CO)O[C@@H]6CO)O[C@@H]5CO)O[C@@H]4CO)O[C@@H]3CO [α-cyclodextrin],129.5 ± 0.7
2,OC[C@H]1O[C@@H]2O[C@H]3[C@H](O)[C@@H](O)[C@@H](O[C@H]4[C@H](O)[C@@H](O)[C@@H](O[C@H]5[C@H](O)[C@@H](O)[C@@H](O[C@H]6[C@H](O)[C@@H](O)[C@@H](O[C@H]7[C@H](O)[C@@H](O)[C@@H](O[C@H]8[C@H](O)[C@@H](O)[C@@H](O[C@H]9[C@H](O)[C@@H](O)[C@@H](O[C@H]1[C@H](O)[C@H]2O)O[C@@H]9CO)O[C@@H]8CO)O[C@@H]7CO)O[C@@H]6CO)O[C@@H]5CO)O[C@@H]4CO)O[C@@H]3CO [γ-cyclodextrin],249.2 ± 0.2
